Patent US20260000710A1, “Novel Treatments for Cardiovascular Related Disease” (priority 2022, published 2026)

System: AIM+ and AIM− CD4+ T cells from peptide-expanded PBMCs
Assay: TCRβ CDR3 sequencing (immunoSEQ) of sorted AIM+ and AIM− CD4+ T cells;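 further: genomic DNA from sorted cells as template, amplification bias-controlled two-step multiplex PCR, APOB6 pool at 10 µg/ml per peptide, CD40 blocking antibody added before restimulation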
Type: cell-based, human
Details: for Log10 Odds Ratio: AIM+ vs AIM−; for No. of clone-specific productive templates, AIM+ CD4+ T (Total 16700) / No. of clone-specific productive templates, AIM− CD4+ T (Total 21770) / No. of clone-specific productive templates, AIM+ CD4+ T (Total 34927) / No. of clone-specific productive templates, AIM− CD4+ T (Total 45364) / No. of clone-specific productive templates, AIM+ CD4+ T (Total 21697) / No. of clone-specific productive templates, AIM− CD4+ T (Total 49956) / No. of clone-specific productive templates, AIM+ CD4+ T (Total 25796) / No. of clone-specific productive templates, AIM− CD4+ T (Total 25928) / No. of clone-specific productive templates, AIM+ CD4+ T (Total 31354) / No. of clone-specific productive templates, AIM− CD4+ T (Total 48987) / No. of clone-specific productive templates, AIM+ CD4+ T (Total 18591) / No. of clone-specific productive templates, AIM− CD4+ T (Total 7206): PBMCs expanded 14 days and restimulated 24 h with APOB6
Experimental: To examine the clonotypic identities of autoreactive CD4^+ T cells, the hypervariable TCRβ DR3 region was sequenced using a DNA-based sequencing technique^42 (Adaptive Biotechnologies), which have been used to profile clonal populations of other self-antigen specific T cells^43. PBMCs from six HLA-typed donors (demographics and HLA-II alleles in Tables 5, 6) were expanded (14-days) and restimulated (24 h) with the APOB6 pool. To isolate viable responder and non-responder CD4^+ T cells from the same pool of stimulated PBMCs (schematic in FIG. 15A, gating strategy in FIG. 151B), the inventors used the AIM assay protocol (FIGS. 2A to 2D).
As a second control, unexpanded PBMCs (day 0 samples), sorted into naïve, central memory (TCM) and effector memory (TEM) CD4^+ T cells, were used (gating strategy in FIG. 15C). This allowed tracing the APOB6-specific AIM^+ T cell clones in naïve and memory T cell lineages. Genomic DNA, isolated from sorted AIM^− and AIM^+ Day 14 samples and naïve, TCM and TEM Day 0 samples from six donors, was used as the starting material for TCRVβ sequencing (schematic in FIG. 15A) using an optimized two-step, amplification bias-controlled multiplex-PCR-based approach^42,44 (immunoSEQ Human TCRB Assay, Adaptive Biotechnologies).
For isolation of APOB epitope-specific CD4^+ T cells, PBMCs were expanded with the APOB6pool (10 μg/ml per peptide). On Day 14, cultured cells were washed and re-stimulated with APOB6 (10 μg/ml) for 24 h (AIM assay protocol). 1 μg/ml of CD40 blocking antibody was added 15 min before stimulation. At the end of the stimulation period, cells were washed with FACS buffer (PBS w/o Ca/Mg, 2% FCS). Day 14 (APOB6 expanded and restimulated) and Day 0 (ex vivo samples with no in vitro stimulation) PBMC samples from six donors were resuspended in a staining master mix containing anti-human Fc-Block (Biolegend), fixable viability dye and antibodies against T cell and non-T cell (Dump) surface markers, activation markers and memory markers (antibody details in Table 4). Viability dye was used at 1:1000 dilution, antibodies were used at a final dilution of 1:100 (activation markers) and 1:200 (other extracellular markers). […] Gates were set based on unstimulated and PHA-L stimulated negative and positive controls, respectively. Antigen-specific AIM^+ and non-specific control AIM^− CD4^+ T cells from Day 14 samples and naïve (CD45RA^+CCR7^+), central memory (CD45RA^−CCR7^+, TCM) and effector memory (CD45RA^−CCR7^−, TEM) CD4^+ T cells from Day 0 PBMCs were sorted into HEPES-containing buffer (PBS with 2% FBS and 0.025 M HEPES) using BD FACSAria flow cytometry sorters. Acquired data was analyzed with FlowJo software.
Genomic DNA was extracted from sorted cells using QIAamp DNA Micro Kit (QIAGEN) and sent to Adaptive Biotechnologies for survey-level TCRβ sequencing (depth ˜60,000 reads) using their established immunoSEQ platform^7. Briefly, highly variable CDR3 regions on somatically rearranged human TCRβ chains were amplified with a two-step multiplex PCR approach using optimized set of primers that target the VDJ region spanning each unique CDR3B. A synthetic repertoire containing all possible V/J templates is used as a built-in control to quantify and correct PCR amplification biases. Processing of raw Illumina sequence reads, filtering, demultiplexing, clustering and mapping of CDR3 sequences and annotation of VDJ genes using IMGT database sequences were performed at Adaptive Biotechnologies and made available for download and analysis.

Substance: CASIRPGLNYGYTF: TCRβ CDR3 clone, TCRBV06-05+TCRBJ01-02, Donor 3
- Log10 Odds Ratio (Donor 3): 1.08
- No. of clone-specific productive templates, AIM+ CD4+ T (Total 16700) (Donor 3): 436
- No. of clone-specific productive templates, AIM− CD4+ T (Total 21770) (Donor 3): 48

Substance: CASRETGGAGELFF: TCRβ CDR3 clone, TCRBV06-05+TCRBJ02-02, Donor 6
- Log10 Odds Ratio (Donor 6): 2.71
- No. of clone-specific productive templates, AIM+ CD4+ T (Total 34927) (Donor 6): 393
- No. of clone-specific productive templates, AIM− CD4+ T (Total 45364) (Donor 6): 1

Substance: CASRGQRDTGELFF: TCRβ CDR3 clone, TCRBV19-01+TCRBJ02-02, Donor 1
- Log10 Odds Ratio (Donor 1): 2.63
- No. of clone-specific productive templates, AIM+ CD4+ T (Total 21697) (Donor 1): 367
- No. of clone-specific productive templates, AIM− CD4+ T (Total 49956) (Donor 1): 2

Substance: CASRKQGLGYTEAFF: TCRβ CDR3 clone, TCRBV02-01+TCRBJ01-01, Donor 4
- Log10 Odds Ratio (Donor 4): 2.45
- No. of clone-specific productive templates, AIM+ CD4+ T (Total 25796) (Donor 4): 544
- No. of clone-specific productive templates, AIM− CD4+ T (Total 25928) (Donor 4): 2

Substance: CASRKTGSLYGYTF: TCRβ CDR3 clone, TCRBV27-01+TCRBJ01-02, Donor 5
- Log10 Odds Ratio (Donor 5): 11.80
- No. of clone-specific productive templates, AIM+ CD4+ T (Total 31354) (Donor 5): 411
- No. of clone-specific productive templates, AIM− CD4+ T (Total 48987) (Donor 5): 0

Substance: CASRTIGQGSFNYGYTF: TCRβ CDR3 clone, TCRBV27-01+TCRBJ01-02, Donor 1
- Log10 Odds Ratio (Donor 1): 2.78
- No. of clone-specific productive templates, AIM+ CD4+ T (Total 21697) (Donor 1): 257
- No. of clone-specific productive templates, AIM− CD4+ T (Total 49956) (Donor 1): 1

Substance: CASRTTTGFLSPLHF: TCRβ CDR3 clone, TCRBV27-01+TCRBJ01-06, Donor 3
- Log10 Odds Ratio (Donor 3): 1.86
- No. of clone-specific productive templates, AIM+ CD4+ T (Total 16700) (Donor 3): 273
- No. of clone-specific productive templates, AIM− CD4+ T (Total 21770) (Donor 3): 5

Substance: CASSAMVEQPQHF: TCRβ CDR3 clone, TCRBV06-X+TCRBJ01-05, Donor 4
- Log10 Odds Ratio (Donor 4): 0.55
- No. of clone-specific productive templates, AIM+ CD4+ T (Total 25796) (Donor 4): 1709
- No. of clone-specific productive templates, AIM− CD4+ T (Total 25928) (Donor 4): 503

Substance: CASSDDLAANVLTF: TCRβ CDR3 clone, TCRBV13-01+TCRBJ02-06, Donor 2
- Log10 Odds Ratio (Donor 2): 1.61
- No. of clone-specific productive templates, AIM+ CD4+ T (Total 18591) (Donor 2): 411
- No. of clone-specific productive templates, AIM− CD4+ T (Total 7206) (Donor 2): 4

Substance: CASSELGLNTDTQYF: TCRβ CDR3 clone, TCRBV06-01+TCRBJ02-03, Donor 4
- Log10 Odds Ratio (Donor 4): 1.11
- No. of clone-specific productive templates, AIM+ CD4+ T (Total 25796) (Donor 4): 2236
- No. of clone-specific productive templates, AIM− CD4+ T (Total 25928) (Donor 4): 190

Substance: CASSELGTRPNEQFF: TCRβ CDR3 clone, TCRBV10-01+TCRBJ02-01, Donor 4
- Log10 Odds Ratio (Donor 4): 2.76
- No. of clone-specific productive templates, AIM+ CD4+ T (Total 25796) (Donor 4): 558
- No. of clone-specific productive templates, AIM− CD4+ T (Total 25928) (Donor 4): 1

Substance: CASSEMGLNTDTQYF: TCRβ CDR3 clone, TCRBV06-01+TCRBJ02-03, Donor 4
- Log10 Odds Ratio (Donor 4): 0.45
- No. of clone-specific productive templates, AIM+ CD4+ T (Total 25796) (Donor 4): 1601
- No. of clone-specific productive templates, AIM− CD4+ T (Total 25928) (Donor 4): 601

Substance: CASSFTYDEQFF: TCRβ CDR3 clone, TCRBV07-09+TCRBJ02-01, Donor 5
- Log10 Odds Ratio (Donor 5): 1.66
- No. of clone-specific productive templates, AIM+ CD4+ T (Total 31354) (Donor 5): 457
- No. of clone-specific productive templates, AIM− CD4+ T (Total 48987) (Donor 5): 16

Substance: CASSFVDSPESYEQYF: TCRβ CDR3 clone, TCRBV12-X+TCRBJ02-07, Donor 1
- Log10 Odds Ratio (Donor 1): 2.01
- No. of clone-specific productive templates, AIM+ CD4+ T (Total 21697) (Donor 1): 486
- No. of clone-specific productive templates, AIM− CD4+ T (Total 49956) (Donor 1): 11

Substance: CASSIPQGSGSPLHF: TCRβ CDR3 clone, TCRBV05-06+TCRBJ01-06, Donor 6; top-ranked APOB6-specific rearrangement
- Log10 Odds Ratio (Donor 6): 2.41
- No. of clone-specific productive templates, AIM+ CD4+ T (Total 34927) (Donor 6): 9283
- No. of clone-specific productive templates, AIM− CD4+ T (Total 45364) (Donor 6): 63

Substance: CASSIRPNDEQFF: TCRβ CDR3 clone, TCRBV09-01+TCRBJ02-01, Donor 1
- Log10 Odds Ratio (Donor 1): 2.93
- No. of clone-specific productive templates, AIM+ CD4+ T (Total 21697) (Donor 1): 366
- No. of clone-specific productive templates, AIM− CD4+ T (Total 49956) (Donor 1): 1

Substance: CASSISLALIYEQYF: TCRβ CDR3 clone, TCRBV19-01+TCRBJ02-07, Donor 6
- Log10 Odds Ratio (Donor 6): 2.09
- No. of clone-specific productive templates, AIM+ CD4+ T (Total 34927) (Donor 6): 371
- No. of clone-specific productive templates, AIM− CD4+ T (Total 45364) (Donor 6): 4

Substance: CASSKVNEKLFF: TCRβ CDR3 clone, TCRBV03-01/03-02+TCRBJ01-04, Donor 2
- Log10 Odds Ratio (Donor 2): 1.19
- No. of clone-specific productive templates, AIM+ CD4+ T (Total 18591) (Donor 2): 361
- No. of clone-specific productive templates, AIM− CD4+ T (Total 7206) (Donor 2): 9

Substance: CASSLAGTGTNEQFF: TCRβ CDR3 clone, TCRBV05-01+TCRBJ02-01, Donor 1
- Log10 Odds Ratio (Donor 1): 2.97
- No. of clone-specific productive templates, AIM+ CD4+ T (Total 21697) (Donor 1): 396
- No. of clone-specific productive templates, AIM− CD4+ T (Total 49956) (Donor 1): 1

Substance: CASSLALGTGDTEAFF: TCRβ CDR3 clone, TCRBV05-01+TCRBJ01-01, Donor 1
- Log10 Odds Ratio (Donor 1): 2.98
- No. of clone-specific productive templates, AIM+ CD4+ T (Total 21697) (Donor 1): 410
- No. of clone-specific productive templates, AIM− CD4+ T (Total 49956) (Donor 1): 1

Substance: CASSLERGAYGYTF: TCRβ CDR3 clone, TCRBV07-02+TCRBJ01-02, Donor 6
- Log10 Odds Ratio (Donor 6): 2.81
- No. of clone-specific productive templates, AIM+ CD4+ T (Total 34927) (Donor 6): 963
- No. of clone-specific productive templates, AIM− CD4+ T (Total 45364) (Donor 6): 2

Substance: CASSLPRDRDYGYTF: TCRβ CDR3 clone, TCRBV06-02+TCRBJ01-02, Donor 3
- Log10 Odds Ratio (Donor 3): 2.55
- No. of clone-specific productive templates, AIM+ CD4+ T (Total 16700) (Donor 3): 269
- No. of clone-specific productive templates, AIM− CD4+ T (Total 21770) (Donor 3): 1

Substance: CASSLRTGIINEQFF: TCRβ CDR3 clone, TCRBV05-01+TCRBJ02-01, Donor 5
- Log10 Odds Ratio (Donor 5): 11.77
- No. of clone-specific productive templates, AIM+ CD4+ T (Total 31354) (Donor 5): 383
- No. of clone-specific productive templates, AIM− CD4+ T (Total 48987) (Donor 5): 0

Substance: CASSLTRIPEQYF: TCRβ CDR3 clone, TCRBV28-01+TCRBJ02-07, Donor 1
- Log10 Odds Ratio (Donor 1): 0.90
- No. of clone-specific productive templates, AIM+ CD4+ T (Total 21697) (Donor 1): 459
- No. of clone-specific productive templates, AIM− CD4+ T (Total 49956) (Donor 1): 136

Substance: CASSLYAGQNTEAFF: TCRβ CDR3 clone, TCRBV07-02+TCRBJ01-01, Donor 6
- Log10 Odds Ratio (Donor 6): 2.35
- No. of clone-specific productive templates, AIM+ CD4+ T (Total 34927) (Donor 6): 344
- No. of clone-specific productive templates, AIM− CD4+ T (Total 45364) (Donor 6): 2

Substance: CASSPADREETQYF: TCRβ CDR3 clone, TCRBV18-01+TCRBJ02-05, Donor 3
- Log10 Odds Ratio (Donor 3): 0.99
- No. of clone-specific productive templates, AIM+ CD4+ T (Total 16700) (Donor 3): 410
- No. of clone-specific productive templates, AIM− CD4+ T (Total 21770) (Donor 3): 56

Substance: CASSPDFSGANVLTF: TCRβ CDR3 clone, TCRBV05-06+TCRBJ02-06, Donor 6
- Log10 Odds Ratio (Donor 6): 2.17
- No. of clone-specific productive templates, AIM+ CD4+ T (Total 34927) (Donor 6): 339
- No. of clone-specific productive templates, AIM− CD4+ T (Total 45364) (Donor 6): 3

Substance: CASSPGREPGNTIYF: TCRβ CDR3 clone, TCRBV07-09+TCRBJ01-03, Donor 5
- Log10 Odds Ratio (Donor 5): 0.57
- No. of clone-specific productive templates, AIM+ CD4+ T (Total 31354) (Donor 5): 422
- No. of clone-specific productive templates, AIM− CD4+ T (Total 48987) (Donor 5): 179

Substance: CASSPLLYSGNTIYF: TCRβ CDR3 clone, TCRBV07-02+TCRBJ01-03, Donor 3
- Log10 Odds Ratio (Donor 3): 12.09
- No. of clone-specific productive templates, AIM+ CD4+ T (Total 16700) (Donor 3): 347
- No. of clone-specific productive templates, AIM− CD4+ T (Total 21770) (Donor 3): 0

Substance: CASSPQPSTDTQYF: TCRβ CDR3 clone, TCRBV07-08+TCRBJ02-03, Donor 4
- Log10 Odds Ratio (Donor 4): 1.60
- No. of clone-specific productive templates, AIM+ CD4+ T (Total 25796) (Donor 4): 431
- No. of clone-specific productive templates, AIM− CD4+ T (Total 25928) (Donor 4): 11

Substance: CASSPRAGGAVREQYF: TCRβ CDR3 clone, TCRBV05-08+TCRBJ02-07, Donor 2
- Log10 Odds Ratio (Donor 2): 12.03
- No. of clone-specific productive templates, AIM+ CD4+ T (Total 18591) (Donor 2): 375
- No. of clone-specific productive templates, AIM− CD4+ T (Total 7206) (Donor 2): 0
